Laboratory results published in patent US20050070591A1, “Indole derivative” (priority 2001, published 2005).
Values joined by “and” are separate entries in the source; they are usually repeats but may differ in a detail not shown here. Equal values may be shown once.

Assays:
[1] = system: human epidermoid carcinoma cells A431; experiment: Abrogating action for the cell cycle accumulation in G2 and S phases (flow cytometry DNA histogram); assay type: cell-based; conditions: cisplatin 20 μmol/L
Experimental: Each 5 mL of human epidermoid carcinoma cells A431 (hereinafter, referred to as A431 cells) prepared in 6×10^4 cells/mL in a DMEM medium (manufactured by Nissui; hereinafter, referred to as the medium A) containing 10% fetal bovine serum were disposed in a 10-cm laboratory dish (manufactured by Falcon; product no. 3303). The plate was incubated in a carbon dioxide gas incubator at 37° C. for 24 hours, then cisplatin (manufactured by Sigma) where its final concentration in the medium A was made 20 μmol/L was added and the mixture was incubated at 37° C. for 1 hour in a carbon dioxide gas incubator.
After removing the medium, the cell was washed with PBS(−) [phosphate-buffered physiological saline solution (containing no calcium ion); manufactured by Dainippon Pharmaceutical, then the medium A was added thereto, the mixture was incubated at 37° C. for 15 hours in a carbon dioxide gas incubator, a compound which was appropriately diluted with the medium A was added thereto and the mixture was incubated again in a carbon dioxide gas incubator at 37° C. for 8 hours. After removal of the supernatant from the culture, the cell was washed with PBS(−), exfoliated with a 0.25% aqueous solution of trypsin (0.25% Trypsin manufactured by Gibco BRL) and a 0.02% aqueous solution of ethylenediaminetetraacetic acid (manufactured by Wako Pure Chemicals), fixed with a 70% aqueous solution of ethanol so as to make the cell concentration 10^6 cells/mL and preserved in a cool chamber of 4° C. The fixed cells were subjected to a centrifugal separation to remove ethanol, washed with PBS(−) and treated with a 0.25 mg/mL ribonuclease A type 1-A (manufactured by Sigma) PBS(−) solution containing 0.1% Nonidet P-40 (manufactured by Nakarai Kagaku Yakuhin) at 37° C. for 30 minutes and a 0.1% solution of propidium iodide (manufactured by Sigma) in NP-40/PBS(−) so as to make the final concentration 50 μg/mL followed by staining in ice for not shorter than 20 minutes.
A DNA histogram was measured using an EPICS ELITE Flow Cytometer (manufactured by Coulter) and distribution of cell cycle was analyzed using a MultiCycle Program (manufactured by Phonenix Flow Systems).

human CDK2-cyclin E = target: T1, human CDK2-cyclin E (Homo sapiens, UniProt P24941); experiment: CDK2 inhibitory activity (incorporation of 32P from [γ-32P]-ATP into GST-RB); assay type: biochemical; conditions: 50 μmol/L ATP, 30° C., 5 minutes; read-out: Enzyme Inhibitory Activity, IC50
T1 construct: made in house; host or cells: Spodoptera frugiperda (Sf-9) insect cells, baculovirus
Experimental: A crude extract of cells of an insect, Spodoptera frugiperda (Sf-9) infected with human CDK2-cyclin E-expressing baculovirus was subjected to an affinity purification to give an enzyme solution. The enzyme solution (4 μL), 20 μL of reaction solution containing a DMSO solution in which a test compound was dissolved (final concentration: 0.1%) and 5 μL of a substrate solution [50 μmol/L of ATP (final concentration), 2 μCi of [γ-^32P]-ATP and 500 ng of […] (GST-RB)] were incubated at 30° C. for 5 minutes. A sodium dodecylsulfate-polyacrylamide gel electrophoresis (SDS-PAGE) was carried out, then incorporation of radiation activity from [γ-^32P]-ATP into GST-RB was determined using an Image Analyzer BAS 200 (Fuji Photo-Film) and an enzyme inhibition was calculated. CDK2 inhibitory activity (I) at various concentrations of a test compound was calculated by the following formula using radiation activity (C) of the group to which no test compound was added, radiation activity (S) of the group to which a test compound was added and radiation activity (B) of a background (a sample where the reaction time was 0 hour) and a concentration by which CDK2 activity was inhibited to an extent of 50% by each test compound was defined as IC50. I(%)=[1−(S−B)/(C−B)]×100

Saos-2 cells = experiment: Cell growth inhibition against human osteosarcoma cells Saos-2; assay type: cell-based; conditions: Saos-2, 72 hours, read-out: Cell Growth Inhibitory Activity, IC50, Saos-2
Experimental: (§1) Each of Saos-2 and U2OS cells was made into 1.0×10^4 cells/mL using a Roswell Park Memorial Institute's medium (RPMI) 1640 (manufactured by Nissui) containing 10% of fetal bovine serum and penicillin/streptomycin and a Dulbecco's modified Eagle medium (DME) (manufactured by Nissui) containing 10% fetal bovine serum and penicillin/streptomycin each. Each of the prepared cells was dispensed in an amount of 0.1 mL per well to a 96-well microtiter plate (#167008 manufactured by Nunk). Each plate was incubated in a carbon dioxide gas incubator at 37° C. for 20 hours. A solution of a test compound in DMSO prepared into 10 mmol/L was diluted with each medium for incubation and each 0.05 mL thereof was added to each well, subjected to stepwise dilution by means of a pipetting operation in the plate and incubated at 37° C. for 72 hours in a carbon dioxide gas incubator.
(§2) A supernatant was removed from cell culture, each well was washed with 0.1 mL of a phosphate buffer (PBS buffer) twice and 0.1 mL of the above medium was added to each well. A cell proliferation kit II (manufactured by Boehringer Mannheim) was used for the measurement of cell numbers in each well. A reagent for color reaction was added, incubation was carried out in a carbon dioxide gas incubator at 37° C. for 3 hours and absorbance at 490 nm and 650 nm was measured in a microplate reader (M-SP max 250; manufactured by Wako Pure Chemicals). A value where absorbance at 650 nm was deducted from that at 490 nm (difference absorbance) was calculated for each well and the difference absorbance obtained from non-treated cells and cells which were treated with a test compound of a known concentration was compared whereupon a concentration of the test compound which inhibited the cell growth to an extent of 50% was calculated and expressed as IC50.

U2OS cells = experiment: Cell growth inhibition against human osteosarcoma cells U2OS; assay type: cell-based; conditions: 72 hours, read-out: Cell Growth Inhibitory Activity, IC50, U2OS
Experimental: as §1, §2

IC50 (human CDK2-cyclin E) [µM] | IC50 (Saos-2 cells) [µM] | IC50 (U2OS cells) [µM] | Structure (SMILES) | other results
– | – | – | N.N.[Cl][Pt][Cl] [Cisplatin, cisplatin] | Cell Cycle Distribution (%) G1 [1]: 2.2% and 10.4%; Cell Cycle Distribution (%) G2M [1]: 17.2% and 22.4%; Cell Cycle Distribution (%) S [1]: 80.6% and 67.2%; Change of cell cycle distribution as compared with untreated groups (induction of the accumulation in G2 or S phase) [1]: increase in S phase, increase in G2 and M phase and decrease in G1 phase
5 | – | – | CCCCC(=O)Oc1cccc(-c2cc3c(cc(C=O)n3C)c3c2C(=O)NC3=O)c1 [Compound 12] | –
2.3 | – | – | Cn1c2ccccc2c2c3c(c(CBr)cc21)C(=O)NC3=O [Compound 36] | –
4.9 | – | – | C=CCn1c2ccccc2c2c3c(c(N)cc21)C(=O)NC3=O [Compound 45] | –
3.3 | – | – | C=CCn1c2ccccc2c2c3c(c(CO)cc21)C(=O)NC3=O [Compound 46] | –
4 | – | – | C=CCn1c2ccccc2c2c3c(c(COC4CCCCO4)cc21)C(=O)NC3=O (centres unmarked) [Compound 47] | –
0.43 | – | – | C=CCn1c2ccccc2c2c3c(c(CN=[N+]=[N-])cc21)C(=O)NC3=O [Compound 48] | –
0.66 | – | – | C=CCn1c2ccccc2c2c3c(c(C=O)cc21)C(=O)NC3=O [Compound 50] | –
2 | – | – | C=CCn1c2ccccc2c2c3c(c(C=NNCCO)cc21)C(=O)NC3=O [Compound 54] | –
7 | 1.3 | 1.6 | CN(C)CCCn1c2ccccc2c2c3c(c(C=O)cc21)C(=O)NC3=O [Compound 64] | –
2.8 | 0.68 | 0.5 | CN(C)CCCn1c2ccccc2c2c3c(c(C=NO)cc21)C(=O)NC3=O [Compound 65] | –
0.25 | 1.2 | 2.1 | CC(Cn1c2ccccc2c2c3c(c(C=O)cc21)C(=O)NC3=O)N(C)C (centres unmarked) [Compound 66] | –
0.2 | 0.93 | 1.2 | CC(Cn1c2ccccc2c2c3c(c(C=NO)cc21)C(=O)NC3=O)N(C)C (centres unmarked) [Compound 68] | –
0.96 | 0.3 | 0.68 | CC(Cn1c2ccccc2c2c3c(c(C=NN)cc21)C(=O)NC3=O)N(C)C (centres unmarked) [Compound 69] | –
2 | – | – | COC(=O)c1ccc(Cn2c3ccccc3c3c4c(c(COC5CCCCO5)cc32)C(=O)NC4=O)cc1 (centres unmarked) [Compound 79] | –
2.4 | – | – | O=C1NC(=O)c2c1c(COC1CCCCO1)cc1c2c2ccccc2n1Cc1ccc2ccccc2c1 (centres unmarked) [Compound 80] | –
